The results in this text go back to PubChem BioAssay AID2837 (The Scripps Research Institute Molecular Screening Center, 2010).

Each structure is given as a SMILES string. Calls of active or inactive are those of the source.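 The calls were made as follows: active = IC50 of 10 µM or lower; inactive = IC50 above 10 µM.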 Bounds are passed on as bounds.

In the test the target is Guanyl-specific ribonuclease T1 (Aspergillus oryzae (strain ATCC 42149 / RIB 40)) (UniProt P00651). Briefly: RNase T1 inhibition potency, counter-screen, late-stage follow-up, counter-screen for TPT1 inhibitor project, biochemical, fluorescence polarization, IC50 (AID 2837). The conditions noted are these: RNase T1 cleavage of B-U6G-AF.
Guanyl-specific ribonuclease T1 (Aspergillus oryzae (strain ATCC 42149 / RIB 40)), sequence (P00651 whole entry, looked up): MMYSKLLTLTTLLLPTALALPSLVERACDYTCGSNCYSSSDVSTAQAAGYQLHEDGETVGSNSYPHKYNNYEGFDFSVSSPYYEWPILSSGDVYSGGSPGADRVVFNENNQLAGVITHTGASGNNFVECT

Take `CC1=C(C#N)C(=O)N(C2CCS(=O)(=O)C2)C(=O)/C1=C\c1ccco1` (stereo not given): the IC50 was > 49.8 µM (inactive). The same measure for `OC(Cn1cncn1)(Cn1cncn1)c1ccc(F)cc1F`: > 49.8 µM (inactive). The same measure for `Cc1cc(C)n(Cc2ccc(C(=O)NN=Cc3ccc(-c4ccc([N+](=O)[O-])cc4)o3)o2)n1`: “inactive”; for `Cc1ccc(N2C(=O)NC(=O)/C(=C\c3ccc([N+](=O)[O-])o3)C2=O)cc1`: “inactive”. Consider `NS(=O)(=O)c1cc(C(=O)NC2CCSc3ccccc32)ccc1Cl` (stereo not given), for which the IC50 was > 49.8 µM (inactive). The same measure for `Cc1[nH]n(-c2ccc(S(=O)(=O)O)cc2)c(=O)c1N[N-]c1ccc(C2=CC(=O)/C(=N\[N-]c3ccc4c(S(=O)(=O)O)cc(S(=O)(=O)O)c(N)c4c3O)C=C2)cc1O.[Cu+].[Cu+]`: > 49.8 µM (inactive).

In the case of `NC(=O)c1cc[n+](CC2=C(C(=O)O)N3C(=O)[C@@H](NC(=O)C(c4ccccc4)S(=O)(=O)O)[C@H]3SC2)cc1` (stereo not given in full), the IC50 was > 49.8 µM (inactive).

On to `Cc1ccccc1N1C(=O)/C(=C/c2ccco2)C(=O)NC1=S`, for which the IC50 entry is “inactive”. The same measure for `COc1ccc(OC)c(N2C(=O)/C(=C/c3ccco3)C(=O)NC2=S)c1`: “inactive”. Turning to `O=c1oc2c(O)c(O)cc3c(=O)oc4c(O)c(O)cc1c4c23`, the IC50 is > 49.8 µM (inactive).
